Laboratory results reported in patent US8575351B2, “Active metabolite of a thrombin receptor antagonist” (Merck Sharp & Dohme Corp., priority 2009, dated 2013).
“Also recorded” adds a separate entry of the source.

Key:
[1] = Rising single dose study: LC-MS profiling of SCH 530348 metabolites in plasma and urine; type: in vivo, human; settings: for Amount detected in urine (LC-MS): 0-24 hr urine after single 40-mg SCH 530348, humans; for Amount detected in plasma (LC-MS): first 6-hr period after single 20- or 40-mg SCH 530348, humans; for Matrix in which metabolite was detected: single oral 20 and 40 mg SCH 530348, healthy male volunteers, plasma and urine extracts
Description: Phase I clinical studies were designed to evaluate the pharmacokinetics of SCH 530348 in healthy subjects after rising single and multiple doses. The studies included a randomized, evaluator-blind, placebo-controlled, rising single dose (“RSD”) study and a rising multiple dose (“RMD”) study of orally administered SCH 530348 in healthy subjects.
In the single-dose study, 50 healthy males were enrolled into 6 sequential cohorts and randomized to receive in ascending dose manner placebo (n=2-3/group) or oral SCH 530348 (0.25, 1, 5, 10, 20 and 40 mg; n=5-6/group). The objective of this study was to qualitatively assess SCH 530348 metabolites in selected plasma and urine samples following administration of a single oral dose (20 mg or 40 mg, Groups 5 and 6, respectively) of SCH 530348 to healthy male human subjects. Plasma samples from subjects receiving 20 mg and 40 mg of SCH 530348 or placebo were profiled using liquid chromatography-mass spectrometry (“LC-MS”). Only urine samples from 40 mg dose group were profiled. Corresponding plasma and urine LC-MS profiles from the drug- and placebo-dosed subjects were compared to distinguish the drug-derived components from the endogenous material. Next, metabolites were further characterized using liquid chromatography-tandem mass spectrometry (“LC-MS/MS”) methods. Pathways involved in metabolism of SCH 530348 in humans were proposed.
The samples were analyzed using LC-MS System B comprised of TSQ Quantum (Thermo Electron Corp., San Jose, Calif.) operating in a positive electrospray ionization mode, HPLC module Alliance 2695 (Waters, Corp., Milford, Mass.), and flow scintillation analyzer 500TR Series (PerkinElmer Life and Analytical Sciences, Inc., Boston, Mass.).
The clinical phase of the study was conducted at Pharma Bio-Research Group B.V. (Zuidlaren, The Netherlands). Selected plasma and urine samples from Group 5 (20 mg dose and placebo) and Group 6 (40 mg dose and placebo) were shipped and received frozen at Schering-Plough Research Institute (“SPRI”). The samples were stored at −20±10° C. until processing and analysis for metabolites.
Plasma samples from subjects dosed with SCH 530348 or with placebo, in the […], were pooled as summarized in the following table.
To determine extraction efficiency, all available pre-dose plasma from subjects dosed with SCH 530348 (40-mg dose group) was also pooled across subjects. A 2.0 mL aliquot of plasma was spiked with 10 μL of a system suitability mixture (“SSM”) [SCH 530348 and ^14C-SCH 530348 (combined concentration 40 ng/μL, 5000 DPM/μL), SCH 540679 (40 ng/μL), and SCH 609528 (40 ng/μL)] and processed by solvent extraction with protein precipitation. After extracting once with three volumes of acetonitrile, the supernatant was concentrated and reconstituted in dimethylsulfoxide (˜50% of final sample volume) followed by the addition of 1/1 mixture of mobile phases A and B. Following centrifugation, a sample aliquot was analyzed by liquid chromatography-mass spectrometry/flow scintillation analysis (LC-MS/FSA).
A similar procedure was used to process all plasma samples from the drug- or placebo-administered subjects (20- and 40-mg dose groups), and an aliquot of each reconstituted extract was injected for LC-MS analysis. Targeted LC-MS/MS analysis to confirm the presence of metabolites and characterize their structures was also performed.
Urine samples collected during the first 24-hr period post 40-mg dose were pooled across all SCH 530348-dosed subjects (n=5) and across placebo subjects (n=3). Five milliliters of urine (20% of available urine) were pooled from each subject.
To determine the extraction efficiency, 10% of available pre-dose urine from subjects to be dosed with SCH 530348 was also pooled across the subjects. An aliquot (ca. 3.15 mL) was spiked with 15 μL of SSM and extracted by solid-phase extraction. The urine sample was loaded onto a conditioned Sep-Pak Vac tC18 (Waters Corp.) cartridge and washed with water. […]

thrombin receptor = target: T1, thrombin receptor (Homo sapiens, UniProt P25116); assay: Calcium transient assay (human coronary artery smooth muscle cells, TK-induced calcium efflux); type: cell-based
T1 construct: human coronary artery smooth muscle cell assay measuring effects on thrombin receptor agonist peptide; endogenous in cells; host or cells: human coronary artery smooth muscle cells
T1 sequence (P25116 22-425): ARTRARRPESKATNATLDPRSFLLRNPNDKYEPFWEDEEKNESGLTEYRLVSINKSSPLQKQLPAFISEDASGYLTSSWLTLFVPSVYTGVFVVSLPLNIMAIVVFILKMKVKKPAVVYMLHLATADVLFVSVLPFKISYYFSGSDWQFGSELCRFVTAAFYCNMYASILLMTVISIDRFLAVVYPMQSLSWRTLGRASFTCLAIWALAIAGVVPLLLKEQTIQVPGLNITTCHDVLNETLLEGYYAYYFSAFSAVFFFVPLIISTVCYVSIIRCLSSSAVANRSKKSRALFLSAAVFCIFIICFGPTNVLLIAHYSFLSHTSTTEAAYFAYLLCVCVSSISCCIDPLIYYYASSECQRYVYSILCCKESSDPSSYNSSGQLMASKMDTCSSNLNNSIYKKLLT
Method: Upon analysis, it was determined that, unlike the other detected metabolites, the concentration of the M20 metabolite in the blood was sufficient for it to be considered a “major metabolite.” That finding triggered an evaluation of its activity. In order to assess activity, SCH 530348 and the M20 metabolite were subjected to a human coronary artery smooth muscle cell assay measuring effects on thrombin receptor agonist peptide TFLLRNPNDK-NH2 (“TK”) on calcium efflux (“the calcium transient assay”).

[2] = Blood levels in placebo-controlled safety study of SCH 530348 in non-urgent PCI subjects; type: in vivo, human
Description: In a multi-center, randomized, double-blind, placebo-controlled study to evaluate the safety of SCH 530348 in subjects undergoing non-urgent percutaneous coronary intervention (“PCI”), blood samples were taken on days 15, 31, 60, 75, and 91. A steady state blood level concentration of SCH 530348 was reached by day 31. By day 31, the M20 metabolite was present in the blood at levels of 30-40% of those of the parent (SCH 530348).

[3] = Animal study, M20 exposure multiples in monkeys; type: in vivo; settings: single dose at 0.5 mg/kg
Method: (§1) Exposure multiples exceeded 10 in monkeys after a single dose at 0.5 mg/kg, 25 in mice after a single dose at 75 mg/kg, and 50 in female rabbits on day 7 after multiple daily doses at 20 mg/kg.

[4] = Animal study, M20 formation and exposure multiples in rabbits; type: in vivo
Method: as §1

[5] = Animal study, M20 exposure multiples in mice; type: in vivo; settings: single dose at 75 mg/kg
Method: as §1

Amount detected in urine (LC-MS) [1]	Amount detected in plasma (LC-MS) [1]	Matrix in which metabolite was detected [1]	IC50 (thrombin receptor; agonist peptide TFLLRNPNDK-NH2 (TK)) [nM]	Exposure multiples [3]	Exposure multiples ([4]; female rabbits, day 7 after multiple daily doses at 20 mg/kg)	Formation of metabolite in animals ([4]; rabbits, after both single and multiple doses)	Exposure multiples [5]	Structure (SMILES)	IC50 (thrombin receptor; agonist peptide […]-NH2 (TK)) [nM]	Time to steady state blood level concentration ([2]; blood samples on days 15, 31, 60, 75, 91) [days]	Blood level as % of that of the parent (SCH 530348) ([2]; by day 31)
minor to trace levels	Trace amounts	Plasma,; also recorded: Urine	–	–	–	–	–	C[C@H]1OC(=O)[C@@H]2C[C@@H]3C[C@H](N)CC[C@H]3[C@H](/C=C/c3ccc(-c4cccc(F)c4)cn3)[C@H]12 [Metabolite M19, (3R,3aS,4S,4aR,7R,8aR,9aR)-7-amino-4-[(E)-2-[5-(3-fluorophenyl)-2-pyridinyl]ethenyl]-decahydro-3-methylnaphtho[2,3-c]furan-1(3H)-one]	–	–	–
minor to trace levels	–	Urine	–	–	–	–	–	C[C@H]1OC(=O)[C@@H]2C[C@@H]3C[C@H](NC(=O)OCC(=O)O)CC[C@H]3[C@H](/C=C/c3ccc(-c4cccc(F)c4)cn3)[C@H]12 [Metabolite M16, [[[[(1R,3aR,4aR,6R,8aR,9S,9aS)-9-[(E)-2-[5-(3-fluorophenyl)-2-pyridinyl]ethenyl]dodecahydro-1-methyl-3-oxonaphtho[2,3-c]furan-6-yl]amino]carbonyl]oxy]acetic acid]	–	–	–
–	Trace amounts	Plasma	3.4	exceeded 10	> 50	formed	> 25	C[C@H]1OC(=O)[C@@H]2C[C@@H]3C[C@H](NC(=O)OCCO)CC[C@H]3[C@H](/C=C/c3ccc(-c4cccc(F)c4)cn3)[C@H]12 [Metabolite M20, 2-hydroxyethyl(1R,3aR,4aR,6R,9S,9aS)-9-{(E)-2(5-(3-fluorophenyl)pyridine-2-yl)vinvl}-1-methyl-3-oxododecahydronaphtho[2,3-c]furan-6ylcarbamate]	–	–	30-40%

Structure (SMILES)	Amount detected in urine (LC-MS) [1]	Amount detected in plasma (LC-MS) [1]	Matrix in which metabolite was detected [1]	IC50 (thrombin receptor; agonist peptide TFLLRNPNDK-NH2 (TK)) [nM]	Exposure multiples [3]	Exposure multiples ([4]; female rabbits, day 7 after multiple daily doses at 20 mg/kg)	Formation of metabolite in animals ([4]; rabbits, after both single and multiple doses)	Exposure multiples [5]	IC50 (thrombin receptor; agonist peptide […]-NH2 (TK)) [nM]	Time to steady state blood level concentration ([2]; blood samples on days 15, 31, 60, 75, 91) [days]	Blood level as % of that of the parent (SCH 530348) ([2]; by day 31)
CCOC(=O)N[C@@H]1CC[C@@H]2[C@@H](C1)C[C@H]1C(=O)O[C@H](C)[C@H]1[C@H]2/C=C/c1ccc(-c2cccc(F)c2)cn1 [SCH 530348, Ethyl[(1R,3aR,4aR,6R,8aR,9S,9aS)-9-[(E)-2-[5-(3-fluorophenyl)-2-pyridinyl]ethenyl]dodecahydro-1-methyl-3-oxonaphtho[2,3-c]furan-6-yl]carbamate, reference compound]	not detected	primary circulating component	–	–	–	–	–	–	4.5	≤ 31	–
